This note sets out measurements from patent CN101879305A, “血清胸腺因子在制备抗肿瘤药物、肿瘤物理及化学治疗药物的保护药物方面的用途” (priority 2007, dated 2010).

Ends that are not written are not given here.

In one data set the test system is EAC腹水瘤. In words: Anti-tumour test, EAC ascites tumour in mice (Example 1). Type of data set: in vivo, 昆明小鼠. To be noted: positive control 5-氟尿嘧啶 25mg·kg-1, every other day, three times.
The nature of data set [1]: Immune indicators in Co60-irradiated mice (white cell count, carbon clearance, organ indices) (Example 8). Type of data set: in vivo, 昆明鼠. Particulars: 650 rad Co60, after one week.
A further data set relates to H22实体瘤. Nature of the data set: Anti-tumour test, H22 solid tumour in mice (Example 2). Type of data set: in vivo, 昆明小鼠. To be noted: positive control 环磷酰胺 20mg·kg-1, single dose.
Another data set concerns Walker-256瘤. Nature of the data set: Anti-tumour test, Walker-256 tumour in rats (Example 3). Type of data set: in vivo, Wistar大鼠. Particulars: positive control 环磷酰胺 89.2mg.kg-1, single dose.
A further data set has as its system 人肝癌Heps瘤. Nature of the data set: Anti-tumour test, human liver cancer Heps xenograft in nude mice (Example 4). Particulars: positive control 环磷酰胺 10mg·kg-1, single dose. Type of data set: in vivo, 裸鼠.
Data set [2] in a line: Acute toxicity, single tail-vein injection, 7-day observation (Example 7). Type of data set: in vivo, 昆明小鼠. Particulars: for 死亡(%): 20 mice, 7 days; for 给药前体重: before dosing (baseline).

`O=c1[nH]cc(F)c(=O)[nH]1` [5-氟尿嘧啶]: the “生存时间(天)” value in the data set with EAC腹水瘤 is 24.3±4.1 天. In the data set with EAC腹水瘤 (vs blank group), the 生命延长率 is recorded as 82.7 %.

On to `C#C[C@]1(O)[C@H](O)C[C@H]2[C@@H]3CCc4cc(OC5CCCC5)ccc4[C@H]3CC[C@@]21C` [尼尔雌醇], for which the 体重增加 in data set [1] (positive control 尼尔雌醇 0.05mg/只 single gavage) stood at 3.47. Further, in data set [1] (尼尔雌醇 0.05mg/只 single gavage), the 吞噬指数α is 6.00, the 廓清指数K was found to be 0.033, the “白细胞个数(个/mm3)” value is reported as 2693 个/mm3 and the “胸腺指数(mg/10g)” value came out at 28.32 mg/10g. Also, the “脾指数(mg/10g)” value in data set [1] (尼尔雌醇 0.05mg/只 single gavage) is recorded as 8.96 mg/10g.

As for `C#C[C@]1(O)[C@H](O)C[C@H]2[C@@H]3CCc4cc(OC5CCCC5)ccc4[C@H]3CC[C@@]21C` [环磷酰胺], the “实体瘤的重量” value in the data set with H22实体瘤 is 0.6 ± 0.5 g. Besides, the 抑瘤率 in the data set with H22实体瘤 (vs blank group) is on record as 84.8 %. The “肿瘤的重量” value in the data set on Walker-256瘤 worked out at 2.6 ± 1.7 g. Also, the “抑瘤率(%)” value in the data set with Walker-256瘤 (vs blank group) was 85.4 %. For the same compound, in the data set with 人肝癌Heps瘤, the 抑瘤率 is recorded as 62.43 %, the “肿瘤的体积(mm3)” value is 99.73±68.60 mm3 and the “肿瘤的重量” value came out at 0.57 ± 0.12 g.

Turning to “EAKSQGGSN [FTS, Glu-Ala-Lys-Ser-Gln-Gly-Gly-Ser-Asn]”, the “死亡(%)” value in data set [2] (5.0 mg/kg (0.5 mg/ml) i.v. tail vein once), in data set [2] (10.0 mg/kg (1.0 mg/ml) i.v. tail vein once), in data set [2] (50.0 mg/kg (5.0 mg/ml) i.v. tail vein once) and in data set [2] (100.0 mg/kg (10.0 mg/ml) i.v. tail vein once) was 0 % throughout. In addition, the “给药前体重” value is 22.3 ± 2.1 g in data set [2] (5.0 mg/kg group), 23.4 ± 3.1 g in data set [2] (10.0 mg/kg group), 23.6 ± 2.5 g in data set [2] (50.0 mg/kg group) and 23.1 ± 2.8 g in data set [2] (100.0 mg/kg group). Also, the 毒性反应或死亡 entry in data set [2] (5.0, 10.0, 50.0 and 100.0 mg/kg groups, i.v.) is listed as “未发现任何毒性反应或死亡”.
